Like-named read-outs stand apart in the source and are kept apart here.
Legend:
EAE in C57BL/6 mice = assay: Chronic EAE mouse model (MOG35-55 immunization), daily clinical score and body weight; format: in vivo; design: key to Delay in onset of the disease / Reduction in severity of the disease / Reduction in body weight loss: +++: high level improvement; ++: moderate improvement; +: small improvement; −: no improvement; details: for Delay in onset of the disease / Reduction in body weight loss / Reduction in severity of the disease: average overall effects on the EAE model, i.p.
Source text: The aim of this study was to verify the effectiveness of compounds in a chronic mouse animal model of EAE. EAE is a good proof-of-principle model of neurodegeneration since it encompasses degeneration or destruction of practically all the cells in the central nervous system, includes most major immunomodulatory components, and is able to maintain normal innate regenerative functions in the animal. This is a standard model (Antel J P et al., J Neurosci Res. 1997, 50: 345-353) used mainly to mimic the course evolution of Multiple Sclerosis (MS) in humans, and is commonly used for studying disease mechanisms and testing potential therapies. EAE is induced by immunization with myelin proteins, leading to development of myelin-specific T cells. These autoreactive T cells traffic into CNS parenchyma where they initiate an inflammatory cascade through recruitment of other cells such as monocytes and neutrophils. Accumulation of immune cells within CNS leads to myelin damage, axonal loss and clinical deficit in affected animals. EAE can be induced in a variety of species and strains of animals [mice, Rat, marmoset monkey, rhesus macaques] using various CNS antigens [Myelin Oligodendrocyte Glycoprotein (MOG), proteolipid protein (PLP) and myelin basic protein (MBP)]. Seven to 8 week old female C57BL/6 mice were purchased from Charles River Laboratories, and housed at MISPRO™ animal facility for one week before experimentation for adaptation to the new environment. All proper animal experimentation and ethics approvals were obtained prior to the start of any experiments. Mice were immunized subcutaneously with 100 μg of MOG35-55 (Sheldon Biotechnology Centre, McGill University) in CFA containing 5 mg/ml of desiccated (killed and dried) Mycobacterium tuberculosis H37Ra (Difco, Inc), at two sites on the back. The mice were then injected with 200 ng of pertussis toxin (List Biological Laboratories, Inc) in PBS intraperitoneally on days 0 and 2 using 25 gauge needles and scored daily using an EAE clinical scale as detailed below (Touil T et al., J Neurol Sci. 2008, 271:191-202; Antel J P et al., 1997, supra; Owens T et al., Curr Pharm Des. 2005, 1:1031-1037).
EAE was clinically assessed throughout the experiments by daily scoring using a scale from 0 to 5 as follows: partial limp tail, 0.5; full limp tail, 1; limp tail and waddling gait, 1.5; paralysis of one hind limb, 2; paralysis of one hind limb and partial paralysis of other hind limb, 2.5; paralysis of both hind limbs, 3; ascending paralysis, 3.5; paralysis of trunk, 4; moribund, 4.5; death, 5. In all the EAE models a body weight loss is always associated with the clinical signs. This body weight loss is associated with the loss of the function and the paralysis of the muscle (atrophy inducing loss of weight). For animals showing a clinical sign of 2 or more, the food and the water were presented inside the cage to facilitate eating and drinking.
At the onset of clinical signs of EAE, the mice were treated with 200 μl of Compound 51, 53, 57, 59, 101, 104, 105, 111 or 123 dissolved in 2.5% Dimethyl sulfoxide (DMSO) in PBS, while placebo groups were treated with 2.5% Dimethyl sulfoxide (DMSO) in PBS only, by intraperitoneal injection at different time of the clinical evolution.

Caspase-5 = Caspase-5 (Homo sapiens (Human), UniProt P51878); assay: Caspase-5 Inhibitor Drug Screening Kit, fluorometric (AFC liberation); format: biochemical; details: for IC50: 30-minute incubation at 37° C., approximations of the average values, read-out: Caspase enzymatic activity, IC50 (uM) Caspase 5; for inhibitory activity for caspase-5: at the tested dose-range (1 to 3333 nM)
Procedure: (§1) The level of inhibition of caspase-1, -3, -5, -7, -9 activity was determined by comparison of the relative fluorescence intensity in samples with or without the compound.

Caspase-3 = Caspase-3 (Homo sapiens (Human), UniProt P42574); assay: Caspase-3 Inhibitor Drug Screening Kit, fluorometric (AFC liberation); format: biochemical
Procedure: as §1

Glo3/7 = Glo3/7 assay; format: biochemical
Caspase-9 = Caspase-9 (Homo sapiens (Human), UniProt P55211); assay: Caspase-9 Inhibitor Drug Screening Kit, fluorometric (AFC liberation); format: biochemical; details: for IC50: 30-minute incubation at 37° C., approximations of the average values, read-out: Caspase enzymatic activity, IC50 (uM) Caspase 9; for inhibitory activity for caspase-9: at the tested dose-range (1 to 3333 nM)
Procedure: as §1

Caspase-7 = Caspase-7 (Homo sapiens (Human), UniProt P55210); assay: Caspase-7 Inhibitor Drug Screening Kit, fluorometric (AFC liberation); format: biochemical; details: 30-minute incubation at 37° C.; approximations of the average values; read-out: Caspase enzymatic activity, IC50 (uM) Caspase 7
Procedure: as §1

Caspase-1 = Caspase-1 (Homo sapiens (Human), UniProt P29466); assay: Caspase-1 Inhibitor Drug Screening Kit, fluorometric (AFC liberation); format: biochemical; details: for IC50: 30-minute incubation at 37° C., approximations of the average values, read-out: Caspase enzymatic activity, IC50 (uM) Caspase 1; for inhibitory activity for caspase-1: at the tested dose-range (1 to 3333 nM)
Procedure: as §1

[1] = test system: proteolytic cleavage of PARP (poly ADP-ribose polymerase) in Hela cells; assay: Inhibition of staurosporine-induced PARP cleavage in live Hela cells; format: cell-based; details: Hela cells, staurosporine
Procedure: To test the efficacy of caspase-3 inhibitors at the cellular level, the ability of selected compounds to inhibit the proteolytic cleavage of PARP (poly ADP-ribose polymerase) was evaluated in live Hela cells.
Briefly, in this assay Hela cells are seeded in 96 well plates and incubated for 4 hours with staurosporine, a well characterized inducer of apoptosis, alone or together with different concentrations of compound (50, 25, 10 and 3 uM). After formaldehyde-based fixation, the cells are stained with a fluorescein-labeled anti-cleaved PARP antibody (Cell signaling, Cat#: 9547) and counterstained with Hoechst33342 (Invitrogen, Cat#: H3570) to mark all nuclei. Fluorescence images are taken on a Cellomics™ microscope system (Thermo Scientific, Pittsburgh, USA) with the Hoechst stain in the blue channel and the cleaved PARP antibody stain in the green channel. The percentage of cleaved PARP positive cells is determined by calculating the ratio between nuclei with a cleaved PARP antibody staining above a certain threshold and all (Hoechst positive) nuclei. The efficacy of caspase-3 inhibition is determined by calculating the ratio between cleaved PARP positive cells after staurosporine incubation together with compounds and staurosporine incubation without compounds.

[2] = FIG. 2, i.p. from day 10 to 16 post immunization, versus placebo
[3] = 30-minute incubation at 37° C., approximations of the average values, read-out: Caspase enzymatic activity, IC50 (uM) Caspase 3
[4] = FIG. 4, administration for 15 days from day 12 post-immunization, versus placebo

Chain of Caspase-1 (P29466 120-404): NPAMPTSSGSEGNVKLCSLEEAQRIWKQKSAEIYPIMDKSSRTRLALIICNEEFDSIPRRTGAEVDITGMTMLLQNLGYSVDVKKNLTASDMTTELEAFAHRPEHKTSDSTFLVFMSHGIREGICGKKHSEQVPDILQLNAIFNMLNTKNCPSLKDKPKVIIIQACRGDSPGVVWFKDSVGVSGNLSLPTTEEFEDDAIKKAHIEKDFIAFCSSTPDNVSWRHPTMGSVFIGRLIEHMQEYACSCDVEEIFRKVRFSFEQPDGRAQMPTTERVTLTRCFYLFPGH
Chain of Caspase-7 (P55210 whole entry): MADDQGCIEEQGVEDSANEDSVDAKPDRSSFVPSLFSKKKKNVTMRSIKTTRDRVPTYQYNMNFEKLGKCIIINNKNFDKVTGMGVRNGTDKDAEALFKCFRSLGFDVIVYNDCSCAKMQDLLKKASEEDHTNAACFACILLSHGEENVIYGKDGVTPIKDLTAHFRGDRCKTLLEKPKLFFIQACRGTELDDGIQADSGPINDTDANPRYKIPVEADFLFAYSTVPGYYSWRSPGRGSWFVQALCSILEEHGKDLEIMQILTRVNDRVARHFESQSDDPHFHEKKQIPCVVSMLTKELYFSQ
Chain of Caspase-9 (P55211 whole entry): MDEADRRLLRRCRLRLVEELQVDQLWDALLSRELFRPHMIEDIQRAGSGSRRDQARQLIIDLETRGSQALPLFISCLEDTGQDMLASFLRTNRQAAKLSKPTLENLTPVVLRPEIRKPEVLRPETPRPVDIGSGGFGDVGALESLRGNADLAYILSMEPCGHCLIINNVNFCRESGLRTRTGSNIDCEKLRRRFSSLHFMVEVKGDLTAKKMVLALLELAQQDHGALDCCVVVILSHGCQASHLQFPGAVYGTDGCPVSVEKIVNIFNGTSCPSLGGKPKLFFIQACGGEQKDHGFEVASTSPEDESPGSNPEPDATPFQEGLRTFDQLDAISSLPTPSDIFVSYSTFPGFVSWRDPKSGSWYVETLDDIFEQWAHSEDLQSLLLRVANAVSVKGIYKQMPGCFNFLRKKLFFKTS
Chain of Caspase-3 (P42574 29-277): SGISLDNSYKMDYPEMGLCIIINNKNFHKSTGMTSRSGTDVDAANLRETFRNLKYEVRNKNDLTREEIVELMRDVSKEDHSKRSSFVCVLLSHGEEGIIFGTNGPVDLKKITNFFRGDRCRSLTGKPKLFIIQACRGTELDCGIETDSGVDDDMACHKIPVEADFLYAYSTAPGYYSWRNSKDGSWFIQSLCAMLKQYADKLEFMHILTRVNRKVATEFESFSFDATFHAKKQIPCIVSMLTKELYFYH
Chain of Caspase-5 (P51878 137-434): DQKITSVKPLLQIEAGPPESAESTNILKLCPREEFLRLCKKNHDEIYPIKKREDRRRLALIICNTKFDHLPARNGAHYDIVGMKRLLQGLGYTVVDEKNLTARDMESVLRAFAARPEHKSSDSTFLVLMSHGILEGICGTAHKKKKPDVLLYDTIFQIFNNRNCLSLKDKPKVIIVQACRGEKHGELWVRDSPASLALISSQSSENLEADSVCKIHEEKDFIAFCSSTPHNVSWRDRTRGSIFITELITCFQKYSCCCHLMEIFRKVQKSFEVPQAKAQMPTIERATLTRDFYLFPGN

Structure (SMILES) | IC50 (Caspase-5) [µM] | IC50 (Caspase-3; [3]) [µM] | IC50 (Glo3/7) [µM] | IC50 (Caspase-9) [µM] | IC50 (Caspase-7) [µM] | IC50 (Caspase-1) [µM] | other results
COC(=O)C[C@@H](/C=C(\Cl)S(C)(=O)=O)NC(=O)[C@@H](NC(=O)[C@@H](NC(=O)[C@H](CC(=O)OC)NC(=O)OCc1ccccc1)C1Cc2ccccc2C1)C(C)C [Compound 105, Z-Asp(β-methyl)-indanylglycine-Val-Asp(β-methyl)achlorovinyl Methylsulfone] |  |  |  |  |  |  | Disease onset (EAE in C57BL/6 mice; [2]): delayed; Loss of body weight (EAE in C57BL/6 mice; [2]): less than placebo; severity of the disease (EAE in C57BL/6 mice; [2]): reduced significantly at the early stage of the disease; Delay in onset of the disease (EAE in C57BL/6 mice): ++; Reduction in body weight loss (EAE in C57BL/6 mice): ++; Reduction in severity of the disease (EAE in C57BL/6 mice): +
CC(C)[C@H](NC(=O)C(Cc1ccc2ccccc2n1)NC(=O)[C@H](CC(=O)O)NC(=O)OCc1ccccc1)C(=O)N[C@H](/C=C/S(=O)(=O)c1ccccc1)CC(=O)O (stereo partly drawn) [Compound 70, Z-Asp-(D,L Ala(2′-quinolyl))-Val-Aspphenyl Vinylsulfone] | > 10 | 0.3 | 20 | > 10 | > 10 | > 3.33 | 
COC(=O)C[C@@H](/C=C(\Cl)S(C)(=O)=O)NC(=O)[C@@H](NC(=O)[C@@H](NC(=O)[C@H](CC(=O)OC)NC(=O)OCc1ccccc1)c1ccccc1)C(C)C [Compound 104, Z-Asp(β-methyl)-phenylglycine-Val-Asp(β-methyl)achlorovinyl Methylsulfone] |  |  |  |  |  |  | Disease onset (EAE in C57BL/6 mice; [2]): delayed; Loss of body weight (EAE in C57BL/6 mice; [2]): did not show and significant difference compared to placebo; severity of the disease (EAE in C57BL/6 mice; [2]): reduced significantly at the early stage of the disease; Delay in onset of the disease (EAE in C57BL/6 mice): ++; Reduction in body weight loss (EAE in C57BL/6 mice): −; Reduction in severity of the disease (EAE in C57BL/6 mice): +
CC(C)[C@H](NC(=O)[C@H](Cc1ccc2ccccc2n1)NC(=O)[C@H](CC(=O)O)NC(=O)OCc1ccccc1)C(=O)N[C@H](/C=C/S(C)(=O)=O)CC(=O)O [Compound 55, Z-Asp-Ala(2′-quinolyl)-Val-Aspmethyl vinyl sulfone] | > 10 |  | 0.1 | > 3.33 | 1.4 | > 10 | inhibitory activity for caspase-5 (Caspase-5): No significant inhibitory activity; effectivity in inhibiting PARP cleavage [1]: showing effectivity especially relative to DEVD-fmk; inhibitory activity for caspase-9 (Caspase-9): No significant inhibitory activity; inhibitory activity for caspase-1 (Caspase-1): No significant inhibitory activity
CC(C)[C@H](NC(=O)[C@H](Cc1ccc2ccccc2n1)NC(=O)[C@H](CC(=O)O)NC(=O)OCc1ccccc1)C(=O)N[C@H](/C=C/S(=O)(=O)c1ccccc1)CC(=O)O [Compound 63, Z-Asp-Ala(2′-quinolyl)-Val-Aspphenyl vinyl sulfone] | > 3.33 | 0.04 | 0.9 | > 3.33 | 1.8 | > 3.33 | inhibitory activity for caspase-5 (Caspase-5): No significant inhibitory activity; selectivity of Caspase-3 over Caspase-7 based on IC50 values (Caspase-3; IC50 caspase-7 versus caspase-3): ~50 fold; inhibitory activity for caspase-9 (Caspase-9): No significant inhibitory activity; inhibitory activity for caspase-1 (Caspase-1): No significant inhibitory activity
CC(C)(C)OC(=O)C[C@@H](/C=C/S(=O)(=O)c1ccccc1)NC(=O)OC(C)(C)C [Compound 36, Boc-Asp(O-tBu)VSphenyl] | > 3.33 | > 2 | > 50 | > 3.33 | > 3.33 | > 3.33 | 
CC(C)[C@H](NC(=O)[C@H](Cc1c[nH]c2ccccc12)NC(=O)[C@H](CC(=O)O)NC(=O)OCc1ccccc1)C(=O)N[C@H](/C=C/S(C)(=O)=O)CC(=O)O [Compound 88, Z-Asp-Trp-Val-Aspmethyl vinyl sulfone] | > 3.33 | 0.04 | 0.7 | > 3.33 | 1.1 | 0.7 | IC50 (Caspase-3; read-out: IC50 caspase-3): 0.03 to 0.09 µM
COC(=O)CC[C@H](NC(=O)[C@H](CC(=O)OC)NC(=O)OCc1ccccc1)C(=O)N[C@H](C(=O)N[C@@H](CC(=O)OC)C(=O)CF)C(C)C [zDEVD-FMK, z-D(OMe)E(OMe)VD(OMe)FMK, reference compound] |  |  |  |  |  |  | onset of the disease (EAE in C57BL/6 mice; [4]): delayed the onset; severity of the disease (EAE in C57BL/6 mice; [4]): reduced the severity of the disease
CC(C)[C@H](NC(=O)[C@H](Cc1ccc2ccccc2n1)NC(=O)[C@H](CC(=O)O)NC(=O)OCc1ccccc1)C(=O)N[C@H](/C=C/S(=O)(=O)Oc1ccccc1)CC(=O)O [Compound 65, Z-Asp-Ala(2′-quinolyl)-Val-Aspphenoxy vinyl sulfone] | > 3.33 | 0.01 | 0.2 | 0.3 | 0.4 | 1.2 | 
CC(C)[C@H](NC(=O)[C@H](Cc1ccc(OC(C)(C)C)cc1)NC(=O)OCc1ccccc1)C(=O)N[C@@H](C)C(=O)N[C@H](/C=C/S(=O)(=O)c1ccccc1)CC(=O)OC(C)(C)C [Compound 95, Z-Tyr(OtBu)- Val-Ala-Asp (OtBu) phenyl vinyl sulfone] |  |  |  |  |  |  | effects on the clinical course of EAE (EAE in C57BL/6 mice; FIG. 3, i.p. from day 14 to 19 post immunization, versus placebo): ameliorating effects
CC(C)[C@H](NC(=O)[C@@H](NC(=O)[C@H](CC(=O)O)NC(=O)OCc1ccccc1)C1Cc2ccccc2C1)C(=O)N[C@H](/C=C/S(=O)(=O)C(C)C)CC(=O)O [Compound 68, Z-Asp-Indanylglycine-Val-Aspisopropyl Vinyl Sulfone] | > 3.33 | 0.2 | 1.1 | > 3.33 | 1.5 | > 3.33 | 
CC(C)[C@H](NC(=O)OCc1ccccc1)C(=O)N[C@H](/C=C/S(C)(=O)=O)CC(=O)O [Compound 61, z-Val-AspVSmethyl] | > 3.33 | > 3.33 | 50 | > 3.33 | > 3.33 | > 3.33 | activity against caspase-3 (Caspase-3): abolished completely the activity
